Experimental data published in patent US12419874B2, “GLP-1R agonist compound and use thereof” (Chongqing Pharmaceutical Research Institute Co., Ltd., priority 2024, dated 2025).

Target: GLP-1R (Homo sapiens, UniProt P43220)
Assay: GLP-1R agonistic activity by One-Lite luciferase assay in HEK293-GLP-1R-luc cells (Example 59)
Type: cell-based
Details: 6 h incubation, read-out: cAMP EC50
Procedure: The agonistic activities of the compounds of the present disclosure on GLP-1R were evaluated by detecting the generation of cAMP.
• (1) Cell line: HEK293-GLP-1R-luc Stable Cell Line (Cobioer, CBP71117); • (2) Culture medium: DMEM+10% FBS (Gibco); • (3) Kit: One-Lite™ kit Luciferase Assay System (Vazyme). 2. Experimental Procedures • (1) HEK293-GLP1R cells were inoculated in a 96-well plate at a density of 30000 cells per well; • (2) 10× working solution of each compound was formulated; • (3) 10 μL of 10× working solution of each compound was added to corresponding well and incubated at 37° C. for 6 h; • (4) 100 μL of One-Lite Luciferase Assay Substrate formulated using One-Lite Luciferase Assay Buffer was added to each well; • (5) The plate was incubated at room temperature for 3 min; • (6) The plate was read by a multimode microplate reader to detect chemiluminescence. 3. Data Analysis • (1) % Activity was calculated by the following formula: % Activity=100−(Signalcmpd−SignalAve-PC)/(SignalAve-VC−SignalAve-PC)×100 • (2) The dose-response curve was plotted to calculate EC50: Y=Bottom+(Top−Bottom)/(1+10^(Log EC50−X)*HillSlope)) • X: log of agonist concentration; Y: Activity. 4. Experimental Results

Sequence of GLP-1R (P43220 24-463): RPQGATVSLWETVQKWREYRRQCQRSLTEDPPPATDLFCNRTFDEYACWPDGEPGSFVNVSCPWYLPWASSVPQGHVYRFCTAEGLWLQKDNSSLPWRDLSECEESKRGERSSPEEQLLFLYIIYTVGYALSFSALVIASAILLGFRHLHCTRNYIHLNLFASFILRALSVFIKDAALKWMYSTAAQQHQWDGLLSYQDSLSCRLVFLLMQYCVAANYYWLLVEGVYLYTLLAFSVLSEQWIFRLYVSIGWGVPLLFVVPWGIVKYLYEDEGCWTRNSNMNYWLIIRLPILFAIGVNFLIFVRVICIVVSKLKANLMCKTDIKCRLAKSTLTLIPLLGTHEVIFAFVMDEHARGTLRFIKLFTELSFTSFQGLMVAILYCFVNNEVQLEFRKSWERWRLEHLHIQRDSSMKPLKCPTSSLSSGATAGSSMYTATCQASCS

SMILES | EC50
Cc1cc(-n2nc3c(c2-n2ccn(-c4ccc5c(cnn5C)c4F)c2=O)[C@H](C)N(C(=O)c2cc4cc([C@H]5CCOC(C)(C)C5)ccc4n2[C@@]2(c4noc(=O)[nH]4)C[C@@H]2C)CC32CN(S(C)(=O)=O)C2)cc(C)c1F [Compound 168] | ≤ 0.02 µM
Cc1cc(-n2nc3c(c2-n2ccn(-c4ccc5c(cnn5C)c4F)c2=O)[C@H](C)N(C(=O)c2cc4cc([C@H]5CCOC(C)(C)C5)ccc4n2C2(c4noc(=O)[nH]4)CC2)CC32CC2)cc(C)c1F [Compound 169] | ≤ 0.02 µM
C[C@H]1c2c(nn(-c3ccc(F)c(C4CC4)c3)c2-n2ccn(-c3ccc4c(cnn4C)c3F)c2=O)C2(CC2)CN1C(=O)c1cc2cc([C@H]3CCOC(C)(C)C3)ccc2n1C1(c2noc(=O)[nH]2)CC1 [Compound 170] | ≤ 0.02 µM
C[C@H]1c2c(nn(-c3ccc(F)c(C4CC4)c3)c2-n2ccn(-c3ccc4c(cnn4C)c3F)c2=O)C2(CC2)CN1C(=O)c1cc2cc([C@H]3CCOC(C)(C)C3)ccc2n1[C@@]1(c2noc(=O)[nH]2)C[C@@H]1C [Compound 171] | ≤ 0.02 µM
Cc1cc(-n2nc3c(c2-n2ccn(-c4ccc5c(cnn5C)c4F)c2=O)[C@H](C)N(C(=O)c2cc4cc([C@H]5CCOC(C)(C)C5)ccc4n2[C@@]2(c4noc(=O)[nH]4)C[C@@H]2C)CC32CC=CC2)cc(C)c1F [Compound 172] | ≤ 0.02 µM
Cc1cc(-n2nc3c(c2-n2ccn(-c4ccc5c(cnn5C)c4F)c2=O)[C@H](C)N(C(=O)c2cc4cc(N5CCOC(C)(C)C5)ccc4n2[C@@]2(c4noc(=O)[nH]4)C[C@@H]2C)CC32CC2)cc(C)c1F [Compound 173] | 0.02 to 0.1 µM
Cc1cc(-n2nc3c(c2-n2ccn(-c4ccc5c(cnn5C)c4F)c2=O)[C@H](C)N(C(=O)c2cc4cc(C5CCOCC5)ccc4n2C2(c4noc(=O)[nH]4)CC2)CC32CC2)cc(C)c1F [Compound 174] | 0.1 to 0.3 µM
Cc1cc(-n2nc3c(c2-n2ccn(-c4ccc5c(cnn5C)c4F)c2=O)[C@H](C)N(C(=O)c2cc4cc(C5CCOCC5)ccc4n2[C@@]2(c4noc(=O)[nH]4)C[C@@H]2C)CC32CC2)cc(C)c1F [Compound 175] | 0.02 to 0.1 µM
Cc1cc(-n2nc3c(c2-n2ccn(-c4ccc5c(cnn5C)c4F)c2=O)[C@H](C)N(C(=O)c2cc4cc(N5CCOC(C)(C)C5)ccc4n2C2(c4noc(=O)[nH]4)CC2)CC32CC2)cc(C)c1F [Compound 177] | ≤ 0.02 µM
Cc1cc(-n2nc3c(c2-n2ccn(-c4ccc5c(cnn5C)c4F)c2=O)[C@H](C)N(C(=O)c2cc4cc([C@H]5CCOC(C)(C)C5)ccc4n2[C@@]2(c4noc(=O)[nH]4)C[C@@H]2C)CC32CC(C)(O)C2)cc(C)c1F (stereo partly shown) [Compound 179] | ≤ 0.02 µM
Cc1cc(-n2nc3c(c2-n2ccn(-c4ccc5c(cnn5C)c4F)c2=O)[C@H](C)N(C(=O)c2cc4cc([C@H]5CCOC(C)(C)C5)ccc4n2[C@@]2(c4noc(=O)[nH]4)C[C@@H]2C)CC32CC(O)C2)cc(C)c1F (stereo partly shown) [Compound 181] | ≤ 0.02 µM
Cc1cc(-n2nc3c(c2-n2ccn(-c4ccc5c(cnn5C)c4F)c2=O)[C@H](C)N(C(=O)c2cc4cc([C@H]5CCOC(C)(C)C5)ccc4n2[C@@]2(c4noc(=O)[nH]4)C[C@@H]2C)CC32CC(F)C2)cc(C)c1F (stereo partly shown) [Compound 182] | ≤ 0.02 µM
Cc1cc(-n2nc3c(c2-n2ccn(-c4ccc5c(cnn5C)c4F)c2=O)[C@H](C)N(C(=O)c2cc4cc([C@H]5CCOC(C)(C)C5)ccc4n2[C@@]2(c4noc(=O)[nH]4)C[C@@H]2C)CC32CC(N)C2)cc(C)c1F (stereo partly shown) [Compound 183] | ≤ 0.02 µM
COC1CC2(C1)CN(C(=O)c1cc3cc([C@H]4CCOC(C)(C)C4)ccc3n1[C@@]1(c3noc(=O)[nH]3)C[C@@H]1C)[C@@H](C)c1c2nn(-c2cc(C)c(F)c(C)c2)c1-n1ccn(-c2ccc3c(cnn3C)c2F)c1=O (stereo partly shown) [Compound 184] | ≤ 0.02 µM
CCOC1CC2(C1)CN(C(=O)c1cc3cc([C@H]4CCOC(C)(C)C4)ccc3n1[C@@]1(c3noc(=O)[nH]3)C[C@@H]1C)[C@@H](C)c1c2nn(-c2cc(C)c(F)c(C)c2)c1-n1ccn(-c2ccc3c(cnn3C)c2F)c1=O (stereo partly shown) [Compound 187] | ≤ 0.02 µM
Cc1cc(-n2nc3c(c2-n2ccn(-c4ccc5c(cnn5C)c4F)c2=O)[C@H](C)N(C(=O)c2cc4cc([C@H]5CCOC(C)(C)C5)ccc4n2[C@@]2(c4noc(=O)[nH]4)C[C@@H]2C)CC32CCSCC2)cc(C)c1F [Compound 188] | ≤ 0.02 µM
Cc1cc(-n2nc3c(c2-n2ccn(-c4ccc5c(cnn5C)c4F)c2=O)[C@H](C)N(C(=O)c2cc4cc([C@H]5CCOC(C)(C)C5)ccc4n2[C@@]2(c4noc(=O)[nH]4)C[C@@H]2C)CC32CSC2)cc(C)c1F [Compound 189] | ≤ 0.02 µM

SMILES | EC50
Cc1cc(-n2nc3c(c2-n2ccn(-c4ccc5c(cnn5C)c4F)c2=O)[C@H](C)N(C(=O)c2cc4cc([C@H]5CCOC(C)(C)C5)ccc4n2[C@@]2(c4noc(=O)[nH]4)C[C@@H]2C)CC32C[S+]([O-])C2)cc(C)c1F (stereo partly shown) [Compound 190] | ≤ 0.02 µM
Cc1cc(-n2nc3c(c2-n2ccn(-c4ccc5c(cnn5C)c4F)c2=O)[C@H](C)N(C(=O)c2cc4cc([C@H]5CCOC(C)(C)C5)ccc4n2[C@@]2(c4noc(=O)[nH]4)C[C@@H]2C)CC32CS(=O)(=O)C2)cc(C)c1F [Compound 191] | ≤ 0.02 µM
Cc1cc(-n2nc3c(c2-n2ccn(-c4ccc5c(cnn5C)c4F)c2=O)[C@H](C)N(C(=O)c2cc4cc([C@H]5CCOC(C)(C)C5)ccc4n2[C@@]2(c4noc(=O)[nH]4)C[C@@H]2C)CC32CC(OC(C)C)C2)cc(C)c1F (stereo partly shown) [Compound 192] | ≤ 0.02 µM
Cc1cc(-n2nc3c(c2-n2ccn(-c4ccc5c(cnn5C)c4F)c2=O)[C@H](C)N(C(=O)c2cc4cc([C@H]5CCOC(C)(C)C5)ccc4n2[C@@]2(c4noc(=O)[nH]4)C[C@@H]2C)CC32CC(OC3CC3)C2)cc(C)c1F (stereo partly shown) [Compound 193] | ≤ 0.02 µM
Cc1cc(-n2nc3c(c2-n2ccn(-c4ccc5c(cnn5C)c4F)c2=O)[C@H](C)N(C(=O)c2cc4cc([C@H]5CCOC(C)(C)C5)ccc4n2[C@@]2(c4noc(=O)[nH]4)C[C@@H]2C)CC32CC(OC(F)F)C2)cc(C)c1F (stereo partly shown) [Compound 194] | ≤ 0.02 µM
Cc1cc(-n2nc3c(c2-n2ccn(-c4ccc5c(cnn5C)c4F)c2=O)[C@H](C)N(C(=O)c2cc4cc([C@H]5CCOC(C)(C)C5)ccc4n2[C@@]2(c4noc(=O)[nH]4)C[C@@H]2C)CC32CCNC2)cc(C)c1F (stereo partly shown) [Compound 195] | ≤ 0.02 µM
Cc1cc(-n2nc3c(c2-n2ccn(-c4ccc5c(cnn5C)c4F)c2=O)[C@H](C)N(C(=O)c2cn4cc(C5CCOC(C)(C)C5)ccc4c2C2(c4noc(=O)[nH]4)CC2)CC32CC2)cc(C)c1F (stereo partly shown) [Compound 196] | ≤ 0.02 µM
Cc1cc(-n2nc3c(c2-n2ccn(-c4ccc5c(cnn5C)c4F)c2=O)[C@H](C)N(C(=O)c2cc4cc([C@H]5CCOC(C)(C)C5)ccc4n2[C@@]2(c4noc(=O)[nH]4)C[C@@H]2C)CC32C=CCC2)cc(C)c1F (stereo partly shown) [Compound 197] | ≤ 0.02 µM
Cc1cc(-n2nc3c(c2-n2ccn(-c4ccc5c(cnn5C)c4F)c2=O)[C@H](C)N(C(=O)c2cc4cc([C@H]5CCOC(C)(C)C5)ccc4n2[C@@]2(c4noc(=O)[nH]4)C[C@@H]2C)CC32CCC(=O)CC2)cc(C)c1F [Compound 198] | ≤ 0.02 µM
Cc1cc(-n2nc3c(c2-n2ccn(-c4ccc5c(cnn5C)c4F)c2=O)[C@H](C)N(C(=O)c2cc4cc([C@H]5CCOC(C)(C)C5)ccc4n2[C@@]2(c4noc(=O)[nH]4)C[C@@H]2C)CC32CCC(O)CC2)cc(C)c1F (stereo partly shown) [Compound 199] | ≤ 0.02 µM
Cc1cc(-n2nc3c(c2-n2ccn(-c4ccc5c(cnn5C)c4F)c2=O)[C@H](C)N(C(=O)c2cc4cc([C@H]5CCOC(C)(C)C5)ccc4n2[C@@]2(c4noc(=O)[nH]4)C[C@@H]2C)CC32CCC(F)(F)CC2)cc(C)c1F [Compound 200] | 0.02 to 0.1 µM
Cc1cc(-n2nc3c(c2-n2ccn(-c4ccc5c(cnn5C)c4F)c2=O)[C@H](C)N(C(=O)c2cc4cc([C@H]5CCOC(C)(C)C5)ccc4n2[C@@]2(c4noc(=O)[nH]4)C[C@@H]2C)CC32CCC(F)CC2)cc(C)c1F (stereo partly shown) [Compound 201] | 0.02 to 0.1 µM
COC1CCC2(CC1)CN(C(=O)c1cc3cc([C@H]4CCOC(C)(C)C4)ccc3n1[C@@]1(c3noc(=O)[nH]3)C[C@@H]1C)[C@@H](C)c1c2nn(-c2cc(C)c(F)c(C)c2)c1-n1ccn(-c2ccc3c(cnn3C)c2F)c1=O (stereo partly shown) [Compound 202] | ≤ 0.02 µM
Cc1cc(-n2nc3c(c2-n2ccn(-c4ccc5c(cnn5C)c4F)c2=O)[C@H](C)N(C(=O)c2cc4cc([C@H]5CCOC(C)(C)C5)ccc4n2[C@@]2(c4noc(=O)[nH]4)C[C@@H]2C)CC32CC=CCC2)cc(C)c1F (stereo partly shown) [Compound 203] | ≤ 0.02 µM
[2H]C([2H])([2H])OC1CC2(C1)CN(C(=O)c1cc3cc([C@H]4CCOC(C)(C)C4)ccc3n1[C@@]1(c3noc(=O)[nH]3)C[C@@H]1C)[C@@H](C)c1c2nn(-c2cc(C)c(F)c(C)c2)c1-n1ccn(-c2ccc3c(cnn3C)c2F)c1=O (stereo partly shown) [Compound 207] | ≤ 0.02 µM
Cc1cc(-n2nc3c(c2-n2ccn(-c4ccc5c(cnn5C)c4F)c2=O)[C@H](C)N(C(=O)c2cc4cc([C@H]5CCOC(C)(C)C5)ccc4n2[C@@]2(c4noc(=O)[nH]4)C[C@@H]2C)CC32CCC(=O)C2)cc(C)c1F (stereo partly shown) [Compound 208] | ≤ 0.02 µM
Cc1cc(-n2nc3c(c2-n2ccn(-c4ccc5c(cnn5C)c4F)c2=O)[C@H](C)N(C(=O)c2cc4cc([C@H]5CCOC(C)(C)C5)ccc4n2[C@@]2(c4noc(=O)[nH]4)C[C@@H]2C)CC32CCC(O)C2)cc(C)c1F (stereo partly shown) [Compound 209] | ≤ 0.02 µM
